Measurements from PMC12169680, “Design and Mechanistic Analysis of a Potent Bivalent Inhibitor of Transthyretin Amyloid Fibrillogenesis” (Journal of Medicinal Chemistry, 2025).

How the values were obtained:
[1] = biological target: T1, wild-type TTR in normal human plasma (Homo sapiens, UniProt P02766); assay: Displacement of 125I-T4 from TTR in normal human plasma; type: binding; details: for binding to TTR in plasma, in words: normal human plasma
T1 construct: TTR in whole plasma, from individuals homozygous for wild-type TTR; from tissue; host or cells: whole human plasma from individuals homozygous for wild-type TTR

[2] = biological target: T2, V122I TTR (Homo sapiens, UniProt P02766, V142I); assay: Inhibition of mechano-enzymatic fibrillogenesis (ThT); type: biochemical; details: for antifibrillogenic activity, in words: V122I TTR; for inhibition of V122I TTR amyloid formation at equimolar ligand/protein, in words: 9 μM V122I TTR, equimolar concentration, bivalent vs monovalent ligands
T2 construct: 1-127; His6 (N); TEV cleavage site (N); made in house; host or cells: E. coli BL21 (DE3)
Description: To test their potency as inhibitors of TTR fibril formation, the 15 ligands were evaluated for their ability to inhibit the mechano-enzymatic mechanism of fibrillogenesis of V122I TTR, which is one of the most common amyloidogenic variants, , causing a disease with severity intermediate between the wild-type and other rare, more aggressive types of amyloidosis. […] Biochemical activity of ligands together with their physicochemical properties (i.e., cLogD, TPSA) were taken into consideration and B26 was finally selected as the most promising lead for further studies (Figure A). […] Prototype mds84 was also included for comparison. […] Although higher molar ratios of the monovalent ligands did inhibit fibrillogenesis, this cannot be replicated in vivo because the negative cooperativity of TTR cannot be overcome at feasible drug dosage. ,
Recombinant V122I TTR at 0.5 mg/mL (9 μM) in PBS, pH 7.4 was preincubated (37 °C for 30 min) with an equimolar concentration of ligand (or DMSO alone) before adding trypsin (5 ng/μL). Protein fibrillogenesis was carried out in glass vials stirred at 1400 rpm (IKA magnetic stirrer), 37 °C and spectrophotometric turbidity at 400 nm was used to monitor fibril formation over time until it reached a plateau at 96 h.
Analysis of amyloid material harvested from each sample at the end of the fibrillogenesis was carried out using Thioflavin T (ThT) emission fluorescence and Congo red staining. For these analyses, samples were centrifuged 20 min at 11,600g and pellets were thoroughly rinsed with PBS to remove nonbound ligand, resuspended with 100 μL PBS, pH 7.4, containing 10 μM Thioflavin T (ThT) in Costar 96-well black-wall plates. Bottom fluorescence values (excitation 440 nm, emission 480 nm) were recorded using a BMG LABTECH FLUostar Omega plate reader. Each value was normalized to the ThT signal of the TTR sample without ligand.

[3] = biological target: T3, isolated recombinant wild-type TTR (Homo sapiens, UniProt P02766); assay: Displacement of 125I-T4 from isolated wild-type TTR; type: binding; details: for IC50 in buffer (bIC50) compared to mds84, in words: isolated TTR; for IC50: ligand concentration reducing binding of 125I-thyroxine by isolated recombinant wild-type TTR by 50%, mean ± SD, read-out: bIC50
T3 construct: Native TTR is a noncovalent homotetramer of β-sheet-rich 127-residue protomers; His6 (N); TEV cleavage site (N); made in house; host or cells: E. coli BL21 (DE3)
Description: Competition of ligands with thyroxine for binding by TTR was assayed quantitatively by a previously described procedure.

[4] = biological target: T4, recombinant wild-type TTR (Homo sapiens, UniProt P02766); assay: Stopped flow kinetics of ligand binding by fluorescence emission; details: 1 μM TTR
T4 construct: Native TTR is a noncovalent homotetramer of β-sheet-rich 127-residue protomers; His6 (N); TEV cleavage site (N); made in house; host or cells: E. coli BL21 (DE3)
Description: Interaction of ligands in the TTR thyroxine binding pockets induces quenching of intrinsic fluorescence emission.
Kinetics of binding within the first second of reaction was evaluated with an SFM 3000 stopped flow device coupled to a MOS500 spectrometer with a fluorescence detection system (Bio Logic, Claix, France) and a cell path length of 1.5 mm (dead-time <5 ms). Total fluorescence emission over 325 nm, using a cut off filter, was monitored after excitation at 280 nm at 37 °C and 1 μM recombinant wild-type TTR in the presence of 1 μM of ligand in PBS pH 7.4 at a final concentration of 0.9% DMSO. Kinetic data were acquired as the average of at least 3 experimental mixings and fitted using the following equation y(t)=q+Aexp(−kt) where y(t) is the observed fluorescence q the offset of the baseline. A and k are, respectively, amplitude and rate constant of the observed fluorescence change.

[5] = residual V122I TTR fibrillar aggregation with equimolar ligand, ThT emission normalized to protein without ligand, mean ± SD
[6] = supplementary CSV, residual V122I TTR aggregation, equimolar ligand
[7] = ligand concentration reducing binding of 125I-thyroxine by wild-type TTR by 50% in normal human plasma, mean ± SD

Row | Compound | binding to TTR in plasma, in words [1] | Agg (%) [2, 5] [%] | Agg (%) [2, 6] [%] | IC50 in buffer (bIC50) compared to mds84, in words [3] | IC50 [3] [µM] | IC50 [1, 7] [µM] | antifibrillogenic activity, in words ([2]; equimolar ligand) | rate constant k of TTR intrinsic fluorescence quenching ([4]; 1 μM ligand, 37 °C, PBS pH 7.4, first second) [s^–1] | very early change in TTR fluorescence during dead time ([4]; dead time <5 ms, equimolar ligand) | inhibition of V122I TTR amyloid formation at equimolar ligand/protein, in words [2] | IC50 ([1]; supplementary CSV, TTR in normal human plasma) [µM]
1 | O=C(O)CCc1cc(Cl)c(OCCCOCCOc2c(Cl)cc(Nc3ccncc3C(=O)O)cc2Cl)c(Cl)c1 [B27, 4-[4-[2-[3-[4-(2-Carboxyethyl)-2,6-dichloro-phenoxy]-propoxy]-ethoxy]-3,5-Dichloro-anilino]-Pyridine-3-Carboxylic Acid] | preservation of the properties | 12 ± 1.1 | 12±1.1 |  |  |  |  |  |  |  | 
2 | O=C(O)CCc1cc(Cl)c(OCOCCCOc2c(Cl)cc(Nc3ccccc3C(=O)O)cc2Cl)c(Cl)c1 [B8, 2-[4-[3-[[4-(2-Carboxyethyl)-2,6-dichloro-phenoxy]-methoxy]-propoxy]-3,5-dichloro-anilino]-Benzoic Acid] | reduced binding | 12 ± 3.7 | 12±3.7 | higher values of IC50 | 2.1 ± 0.21 | > 150 | Antifibrillogenic activity was reduced |  |  |  | 
3 | O=C(O)COCCOCCOCCOc1c(Cl)cc(Nc2ccccc2C(=O)O)cc1Cl [B5, 2-[4-[2-[2-[2-(Carboxymethoxy)-ethoxy]-ethoxy]-ethoxy]-3,5-dichloro-anilino]-Benzoic Acid] | reduced binding | 28.8 ± 13.4 | 28.8±13.4 | higher values of IC50 | 5 ± 0.4 |  | Antifibrillogenic activity was reduced |  |  |  | 
4 | O=C(O)CCc1cc(Cl)c(OCC[C@H](O)[C@@H](O)CCOc2c(Cl)cc(Nc3ccccc3C(=O)O)cc2Cl)c(Cl)c1 [B4, 2-[4-[(3S,4S)-6-[4-(2-Carboxyethyl)-2,6-dichloro-phenoxy]-3,4-dihydroxy-hexoxy]-3,5-dichloro-anilino]-benzoic acid] | increased the potency of binding | 4.4 ± 3.0 |  |  |  |  | excellent inhibitors of fibrillogenesis |  |  |  | 
5 | O=C(O)CCc1cc(Cl)c(OCCOCCCCOc2c(Cl)cc(Nc3ccccc3C(=O)O)cc2Cl)c(Cl)c1 [B2, 2-[4-[4-[2-[4-(2-Carboxyethyl)-2,6-dichloro-phenoxy]-ethoxy]-butoxy]-3,5-dichloro-anilino]-Benzoic Acid] | increased the potency of binding | 4.4 ± 1.5 | 4.4±1.5 |  |  | 2.6 ± 0.59 | excellent inhibitors of fibrillogenesis |  |  |  | 
6 | O=C(O)CCc1cc(Cl)c(OCCCOCCOc2c(Cl)cc(Nc3ccccc3C(=O)O)cc2Cl)c(Cl)c1 [B1, 2-[4-[2-[3-[4-(2-Carboxyethyl)-2,6-dichloro-phenoxy]-propoxy]-ethoxy]-3,5-dichloro-anilino]-Benzoic Acid] | increased the potency of binding | 5.2 ± 3.6 | 5.2±3.6 |  | 0.1 ± 0.03 | 1.1 ± 0.11 | excellent inhibitors of fibrillogenesis |  |  |  | 
7 | O=C(O)CCc1cc(Cl)c(OCCCOCCOc2c(Cl)cc(Nc3ccnnc3C(=O)O)cc2Cl)c(Cl)c1 [B25, 4-[4-[2-[3-[4-(2-Carboxyethyl)-2,6-dichloro-phenoxy]-propoxy]-ethoxy]-3,5-dichloro-anilino]-Pyridazine-3-Carboxylic acid] | preservation of the properties | 11 ± 4.8 | 11±4.8 |  |  | 3.3 ± 1.8 |  |  |  |  | 
8 | O=C(O)c1ccc2nc(-c3cc(Cl)cc(Cl)c3)oc2c1 [tafamidis, reference compound] |  |  |  |  |  |  |  | 49 ± 0.0016 | approximately 8% | significantly lower inhibitory effect | 
9 | O=C(O)CCOCCCOCCCOCCCOc1c(Cl)cc(Nc2ccccc2C(=O)O)cc1Cl [B6, 2-[4-[3-[3-[3-(2-Carboxy-ethoxy)-propoxy]-propoxy]-propoxy]-3,5-dichloro-anilino]-Benzoic Acid] | reduced binding | 12 ± 4.4 | 12±4.4 | higher values of IC50 | 1.2 ± 0.41 | 40 ± 13 | Antifibrillogenic activity was reduced |  |  |  | 
10 | O=C(O)CCc1cc(Cl)c(OCCCOCCOc2c(Cl)cc(Nc3cnncc3C(=O)O)cc2Cl)c(Cl)c1 [B24, 5-[4-[2-[3-[4-(2-Carboxyethyl)-2,6-dichloro-phenoxy]-propoxy]-ethoxy]-3,5-dichloro-anilino]-Pyridazine-4-Carboxylic acid] | slight reduction of binding potency | 13 ± 8.2 | 13±8.2 |  | 0.1 ± 0.005 | 7.9 ± 1.4 |  |  |  |  | 
11 | O=C(O)CCc1cc(Cl)c(OCC/C=C/CCOc2c(Cl)cc(Nc3ccccc3C(=O)O)cc2Cl)c(Cl)c1 [B14, 2-[4-[(E)-6-[4-(2-Carboxyethyl)-2,6-dichloro-phenoxy]-hex-3-enoxy]-3,5-dichloro-anilino]-Benzoic Acid] |  | 13 ± 3.2 | 13±3.2 |  | 0.08 ± 0.008 | 11 ± 2.9 | Antifibrillogenic activity was reduced |  |  |  | 
12 | O=C(O)CCc1ccc(OCC[C@@H](O)[C@H](O)CCOc2ccc(Nc3ccccc3C(=O)O)cc2Cl)c(Cl)c1 [B22, 2-[4-[(3R,4R)-6-[4-(2-Carboxyethyl)-2-chloro-phenoxy]-3,4-dihydroxy-hexoxy]-3-chloro-anilino]Benzoic Acid] | reduction in the observed potency | 15 ± 2.8 | 15±2.8 |  |  |  | reduced potency |  |  |  | 
13 | O=C(O)CCc1cc(Cl)c(OCC[C@@H](O)[C@H](O)CCOc2ccc(Nc3ccccc3C(=O)O)cc2Cl)c(Cl)c1 [B20, 2-[4-[(3R,4R)-6-[4-(2-Carboxyethyl)-2,6-dichloro-phenoxy]-3,4-dihydroxy-hexoxy]-3-chloro-anilino]-Benzoic Acid] | reduction in the observed potency | 11 ± 4.1 | 11±4.1 |  |  |  | reduced potency |  |  |  | 
14 | O=C(O)CCc1ccc(OCCC(O)C(O)CCOc2c(Cl)cc(Nc3ccccc3C(=O)O)cc2Cl)c(Cl)c1 (stereo not drawn) [B21, 2-[4-[6-[4-(2-Carboxyethyl)-2-chloro-phenoxy]-3,4-dihydroxy-hexoxy]-3,5-dichloro-anilino]-Benzoic Acid] | reduction in the observed potency | 15 ± 2.8 | 15±2.8 |  | 0.07 ± 0.004 | 4.1 ± 2.1 | reduced potency |  |  |  | 
15 | Cc1n[nH]c(C)c1CCCOc1cc(C(=O)O)ccc1F [AG10, acoramidis, reference compound] |  |  |  |  |  |  |  |  |  | significantly lower inhibitory effect | 
16 | O=C(O)CCc1cc(Cl)c(OCC[C@@H](O)[C@H](O)CCOc2c(Cl)cc(Nc3ccccc3C(=O)O)cc2Cl)c(Cl)c1 [B4A, 2-[4-[(3R,4R)-6-[4-(2-carboxyethyl)-2,6-dichloro-phenoxy]-3,4-dihydroxy-hexoxy]-3,5-dichloro-anilino]-Benzoic Acid] | increased the potency of binding | 3.3 ± 1.2 | 4.4±3.0 |  | 0.07 ± 0.009 |  | excellent inhibitors of fibrillogenesis |  |  |  | 4.4 ± 1.2
